Converted amounts (≈) assume the structure as drawn.
Experiments:
cAMP degradation = system: cAMP degradation; set-up: method as in PMID 28730281; conditions: rats, cAMP as a marker of pharmacological response ref [9]; cited from earlier work
[1] = system: TNF-α release in mice model of endotoxemia; set-up: method as in PMID 20389149; conditions: mice model of endotoxemia ref [19]; cited from earlier work
[2] = system: TNF-α release from LPS-stimulated whole rat blood; assay: Inhibition of LPS-induced TNF-α release in whole rat blood; type: cell-based; conditions: LPS 10 mg L^−1, 6 h incubation, compared to LPS-treated control
Method: Stimulation of whole rat blood by LPS was performed on 96-well plates. […] Contents of each well (200 μL) consisted of heparinized rat blood containing 10 U heparin mL^−1 diluted with RPMI-1640 medium at a ratio of 1:1 (v/v). All compounds were dissolved in DMSO and added to blood (the final DMSO concentration in blood was 0.5%) 15 min prior to the addition of LPS dissolved in RPMI-1640 medium to achieve the LPS concentration of 10 mg L^−1. Both, LPS and DMSO were also added to control wells at the same concentrations. Additional control samples (for testing baseline TNF-α levels in blood) consisted of DMSO (0.5%) without LPS. The incubation was performed at 37°C in a humidified atmosphere of 5% CO2 in an MCO-5 AC-PE incubator (PHCbi, Japan). After 6 h of incubation, the plates were centrifuged for 10 min using PlateFuge MicroCentrifuge (Benchmark Scientific, USA). The individual plasma samples were harvested and stored at −80°C until analysis.
(§1) TNF-α levels in LPS-stimulated rat blood in vitro and in rat plasma samples from the in vivo studies were analyzed by the Rat TNF-α Quantikine ELISA Immunoassay Kit (R&D Systems, USA) according to the manufacturer’s instructions. The assay was linear at the range of 12.5–800 pg mL^−1. Levels of TNF-α in mice serum were measured by ELISA Kits for Tumor Necrosis Factor Alpha (Cloud-Clone Corp., USA). This assay was linear at the range of 15.6–1000 pg mL^−1. Absorbance was measured at 450 nm using a POLARstar Omega multi-mode microplate reader (BMG LABTECH, Germany).

[3] = system: LPS-stimulated murine macrophages (RAW263.7 cells); set-up: method as in PMID 14998551; conditions: cited from earlier work
[4] = system: TNF-α plasma levels in male Wistar rats with LPS-induced endotoxemia; assay: LPS-induced endotoxemia in rats, PK/PD model of plasma TNF-α; type: in vivo, rat
Method: Male Wistar rats were implanted with catheters (SAI Infusion Technologies, USA) into the jugular vein and after a two-day recovery period they were administered with LPS dissolved in saline at a dose of 1 mg kg ^−1 into the tail vein simultaneously with one of the investigated compounds. […] The doses of the compounds were selected based on the literature data or results of our previous experiments. Each control group received LPS at the same IV dose and an appropriate volume of corresponding vehicle. […] The plasma samples were collected and stored at −80°C until analysis.
as §1
PK/PD and PK/PD/DIS progression models were developed considering the mechanism of action of the investigated compounds, the mechanisms of disease progression in the case of CIA, and the subsequent stages leading to TNF-α release in the case of LPS-induced endotoxemia. Various numbers of transit compartments were tested during development of the models, and the final models were chosen based on the goodness-of-fit criteria, such as AIC, SBC, a visual inspection of the fitting, and parameter precision. Estimated values of pharmacokinetic parameters were fixed during PK/PD and PK/PD/DIS progression model fitting procedures. […] PK/PD and PK/PD/DIS progression modeling were performed in ADAPT 5 software using the weighted least squares algorithm.
Therefore, as a result of PK/PD analysis, three sets of pharmacodynamic parameters were obtained based on the data from the three individual experiments.
The applied model is a modified indirect response model ([19]) with implemented transit compartments (T1-T4) that describe the delay of the observed pharmacodynamic response. In this scheme τ is the mean transit time, kin is the time limited (from 0 to tlag) zero-order rate constant of production of a TNF-α precursor (e.g., TNF-α mRNA). Different numbers of transit compartments were tested during the model development, but the best fit was observed using four transit compartments.
All Imax values were fixed to 1.

[5] = system: LPS-stimulated human PBMC; set-up: method as in PMID 14998551; conditions: LPS-stimulated human PBMC ref [31]; read-out: IC50, TNF-α production; cited from earlier work
PDE4 = system: PDE4; set-up: method as in PMID 14998551; conditions: ref [31]; read-out: IC50PDE4; cited from earlier work

SMILES | IC50 value for the inhibition of cAMP degradation (cAMP degradation) [µg/mL] | IC50 value for the inhibition of TNF-α release [1] [µg/mL] | Reduction of TNF-α levels in LPS-stimulated whole rat blood (result in words) [2] | TNF-α production (result in words) ([3]; RAW263.7 cells, concentrations of 500 and 1000 μM ref [31]) | IC50 ([4]; Rattus norvegicus, iv, read-out: IC50, concentration of compound producing 50% of Imax (inhibition of TNF-α release in vivo), Final estimate (CV%), plasma concentration, PK/PD model, Imax fixed to 1, male Wistar rats, LPS 1 mg kg^−1 IV, IV GRMS-55 20, rolipram 5, (±)-LSF and PTX 40 and 80 mg kg^−1) [µg/mL] | activity in inhibiting TNF-α release in vivo, times lower than that of rolipram ([4]; ratio of IC50 values to rolipram) | IC50 ([3]; LPS-stimulated murine macrophage cell line ref [31], read-out: IC50, TNF-α production) [nM] | IC50 [5] [nM] | IC50 (PDE4) [nM]
CC(=O)CCCCn1c(=O)c2c(ncn2C)n(C)c1=O [PTX, Pentoxifylline] | 4.48 | 0.47 | significantly and with similar potency reduced | significantly inhibited TNF-α production | 14 (≈ 50.3 µM) | ~ 39 times |  |  | 
C[C@@H](O)CCCCn1c(=O)c2c(ncn2C)n(C)c1=O [R-(−)-LSF] |  | 1.61 |  |  |  |  |  |  | 
COc1ccc(C(=O)Nc2c(Cl)cncc2Cl)cc1OC1CCCC1 [RP73401] |  |  |  |  |  |  | 2.7 | 3.3 | 1
